Source: publication PMC10682951, “Structure-function and rational design of a spider toxin Ssp1a at human voltage-gated sodium channel subtypes” (Frontiers in Pharmacology, 2023)
Bridge positions count the residues as written; N and C are the ends. Peptide text beside a SMILES is read from it.

Assays:
Assay type in all cases: cell-based
hNaV1.7 = target: T1, hNaV1.7 (Homo sapiens, UniProt Q15858); assay: Automated whole-cell patch-clamp (QPatch 16X), hNaV1.7; settings: for IC50: HEK293 cells expressing hNaV1.7 + β1 subunit, QPatch 16X, holding −80 mV, step to 0 mV, peptide incubated 2 min, 0.1% BSA, mean, SEM and n (3-9)
T1 construct: host or cells: HEK293
T1 sequence (Q15858 whole entry): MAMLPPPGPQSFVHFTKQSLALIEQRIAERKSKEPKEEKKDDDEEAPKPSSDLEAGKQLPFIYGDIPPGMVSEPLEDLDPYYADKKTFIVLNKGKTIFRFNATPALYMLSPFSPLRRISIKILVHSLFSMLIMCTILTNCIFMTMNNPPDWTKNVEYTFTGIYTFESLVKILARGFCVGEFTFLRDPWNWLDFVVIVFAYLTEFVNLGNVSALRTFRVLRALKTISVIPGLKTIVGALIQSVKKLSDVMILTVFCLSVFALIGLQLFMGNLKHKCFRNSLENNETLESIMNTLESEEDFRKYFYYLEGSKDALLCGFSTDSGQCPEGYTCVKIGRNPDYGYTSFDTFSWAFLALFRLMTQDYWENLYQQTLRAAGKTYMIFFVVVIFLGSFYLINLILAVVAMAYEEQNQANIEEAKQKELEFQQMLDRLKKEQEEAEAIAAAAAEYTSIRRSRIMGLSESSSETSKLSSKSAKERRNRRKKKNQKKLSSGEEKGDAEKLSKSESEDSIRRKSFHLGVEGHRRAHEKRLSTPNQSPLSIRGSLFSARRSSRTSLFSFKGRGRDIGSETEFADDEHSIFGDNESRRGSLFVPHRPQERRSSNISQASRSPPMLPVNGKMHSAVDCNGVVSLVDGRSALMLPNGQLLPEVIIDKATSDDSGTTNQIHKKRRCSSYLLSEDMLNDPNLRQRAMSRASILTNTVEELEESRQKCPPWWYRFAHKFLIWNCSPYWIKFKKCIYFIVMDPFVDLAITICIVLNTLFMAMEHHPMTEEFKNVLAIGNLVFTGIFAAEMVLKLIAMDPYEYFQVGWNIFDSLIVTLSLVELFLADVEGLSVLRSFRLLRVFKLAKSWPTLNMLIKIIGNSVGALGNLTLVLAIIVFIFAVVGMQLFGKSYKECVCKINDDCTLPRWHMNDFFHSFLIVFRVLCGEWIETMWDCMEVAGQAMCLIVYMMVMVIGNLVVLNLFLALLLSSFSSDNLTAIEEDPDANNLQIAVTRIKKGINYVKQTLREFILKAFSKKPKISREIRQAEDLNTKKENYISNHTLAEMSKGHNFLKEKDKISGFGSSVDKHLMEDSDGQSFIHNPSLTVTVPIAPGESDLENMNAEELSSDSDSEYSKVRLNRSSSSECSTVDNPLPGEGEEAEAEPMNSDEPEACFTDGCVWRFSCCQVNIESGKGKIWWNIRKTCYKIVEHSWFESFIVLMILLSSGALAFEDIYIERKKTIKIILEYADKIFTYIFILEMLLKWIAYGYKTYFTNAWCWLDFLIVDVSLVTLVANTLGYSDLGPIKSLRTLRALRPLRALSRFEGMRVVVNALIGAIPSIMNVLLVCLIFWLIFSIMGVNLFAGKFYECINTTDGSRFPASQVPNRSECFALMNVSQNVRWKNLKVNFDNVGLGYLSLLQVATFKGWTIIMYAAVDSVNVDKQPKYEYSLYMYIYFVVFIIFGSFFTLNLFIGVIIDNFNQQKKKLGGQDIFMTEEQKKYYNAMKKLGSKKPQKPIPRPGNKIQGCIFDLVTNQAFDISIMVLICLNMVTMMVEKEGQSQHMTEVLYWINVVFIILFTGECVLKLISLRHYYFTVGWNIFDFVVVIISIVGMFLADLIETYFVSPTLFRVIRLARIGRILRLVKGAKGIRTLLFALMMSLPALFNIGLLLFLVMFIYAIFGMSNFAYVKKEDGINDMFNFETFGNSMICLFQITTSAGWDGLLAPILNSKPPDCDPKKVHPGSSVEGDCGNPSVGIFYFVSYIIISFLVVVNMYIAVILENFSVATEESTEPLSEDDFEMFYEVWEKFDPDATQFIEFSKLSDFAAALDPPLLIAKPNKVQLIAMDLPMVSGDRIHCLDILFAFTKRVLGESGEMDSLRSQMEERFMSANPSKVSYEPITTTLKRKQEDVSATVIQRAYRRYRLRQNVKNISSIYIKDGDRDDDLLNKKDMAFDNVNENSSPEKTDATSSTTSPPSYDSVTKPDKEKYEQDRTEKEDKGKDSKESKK
T1 sequence (Q07699 19-218, further chain): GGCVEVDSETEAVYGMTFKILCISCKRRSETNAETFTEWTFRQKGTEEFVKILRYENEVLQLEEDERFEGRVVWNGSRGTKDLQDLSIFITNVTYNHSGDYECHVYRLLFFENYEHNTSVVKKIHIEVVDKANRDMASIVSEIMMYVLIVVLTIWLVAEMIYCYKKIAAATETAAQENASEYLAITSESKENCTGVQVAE
Description: (§1) Human embryonic kidney 293 (HEK293) cells stably expressing recombinant hNaV1.2, hNaV1.3 and hNaV1.7 and the β1 auxiliary subunit (Scottish Biomedical Drug Discovery, Glasgow, UK) were cultured in Minimal Essential medium (MEM) (Sigma-Aldrich, MO, United States) supplemented with 10% v/v FBS-New Zealand origin (Assay Matrix), 2 mM L-glutamine and selection antibiotics as per manufacturer’s recommendation. The HEK293 cells heterologously expressing mNaV1.7 and F813G-mNaV1.7 were generously provided by Prof Irina Vetter and were cultured in Minimal Essential medium (MEM) (Sigma-Aldrich, MO, United States) supplemented with 10% v/v FBS-New Zealand origin (Assay Matrix), 2 mM L-glutamine and hygromycin 100 μg/mL.
(§2) NaV channel currents from HEK293 cells stably expressing NaV subtypes and the β1 auxiliary subunit were recorded using an automated whole-cell patch clamp system QPatch 16X (Sophion Bioscience A/S, Ballerup, Denmark). As per the manufacturer’s guidelines, the cells were cultured for 48 h to achieve ∼80% confluency, detached using Detachin (Genlantis) and resuspended to 5 × 10^6 cells/mL in serum free media [CHO-cell SFM (Life Technologies), 25 mM HEPES and 100 U/mL penicillin/streptomycin]. The extracellular solution comprised (in mM) 1 CaCl2, 1 MgCl2, 5 HEPES, 3 KCl, 140 NaCl and 20 TEA-Cl, with the pH adjusted to 7.3 with NaOH. The intracellular solution comprised (in mM) 140 CsF, 1 EGTA, 5 CsOH, 10 HEPES and 10 NaCl, with the pH adjusted to 7.3 with CsOH. The osmolarity of both solutions were adjusted to 320 mOsm with sucrose. Compounds were prepared in extracellular solution containing 0.1% bovine serum albumin (Sigma-Aldrich). To obtain the dose-response curves, cells were maintained at a holding potential −80 mV and Na^+ currents were elicited by […] voltage steps to 0 mV from a −120 mV conditioning pulse applied for […]. Increasing concentrations of the peptide were incubated with the cells at the holding potential for 2 min before the voltage protocol was applied.
(§3) The experimental data were analysed using QPatch Assay software v5.6.4 and GraphPad Prism 7.0 using a four-parameter Hill equation [Y = Bottom + (Top—Bottom)/(1 + 10^(Log IC50—X)* Hillslope)] to fit concentration response curves by non-linear regression analysis and Student’s t-test. Data are presented as means ± standard error of mean (SEM) with number of independent experiments stated and p < 0.05 is considered statistically significant. Statistically insignificant shift in the activity is denoted by “little” while small but statistically significant shift in the activity is denoted by “slight” throughout the manuscript.

hNaV1.3 = target: T2, hNaV1.3 (Homo sapiens, UniProt Q9NY46); assay: Automated whole-cell patch-clamp (QPatch 16X), hNaV1.3; settings: HEK293 cells expressing hNaV1.3 + β1 subunit; QPatch 16X; holding −80 mV, step to 0 mV; peptide incubated 2 min; 0.1% BSA; mean, SEM and n (3-12)
T2 construct: host or cells: HEK293
T2 sequence (Q9NY46 whole entry): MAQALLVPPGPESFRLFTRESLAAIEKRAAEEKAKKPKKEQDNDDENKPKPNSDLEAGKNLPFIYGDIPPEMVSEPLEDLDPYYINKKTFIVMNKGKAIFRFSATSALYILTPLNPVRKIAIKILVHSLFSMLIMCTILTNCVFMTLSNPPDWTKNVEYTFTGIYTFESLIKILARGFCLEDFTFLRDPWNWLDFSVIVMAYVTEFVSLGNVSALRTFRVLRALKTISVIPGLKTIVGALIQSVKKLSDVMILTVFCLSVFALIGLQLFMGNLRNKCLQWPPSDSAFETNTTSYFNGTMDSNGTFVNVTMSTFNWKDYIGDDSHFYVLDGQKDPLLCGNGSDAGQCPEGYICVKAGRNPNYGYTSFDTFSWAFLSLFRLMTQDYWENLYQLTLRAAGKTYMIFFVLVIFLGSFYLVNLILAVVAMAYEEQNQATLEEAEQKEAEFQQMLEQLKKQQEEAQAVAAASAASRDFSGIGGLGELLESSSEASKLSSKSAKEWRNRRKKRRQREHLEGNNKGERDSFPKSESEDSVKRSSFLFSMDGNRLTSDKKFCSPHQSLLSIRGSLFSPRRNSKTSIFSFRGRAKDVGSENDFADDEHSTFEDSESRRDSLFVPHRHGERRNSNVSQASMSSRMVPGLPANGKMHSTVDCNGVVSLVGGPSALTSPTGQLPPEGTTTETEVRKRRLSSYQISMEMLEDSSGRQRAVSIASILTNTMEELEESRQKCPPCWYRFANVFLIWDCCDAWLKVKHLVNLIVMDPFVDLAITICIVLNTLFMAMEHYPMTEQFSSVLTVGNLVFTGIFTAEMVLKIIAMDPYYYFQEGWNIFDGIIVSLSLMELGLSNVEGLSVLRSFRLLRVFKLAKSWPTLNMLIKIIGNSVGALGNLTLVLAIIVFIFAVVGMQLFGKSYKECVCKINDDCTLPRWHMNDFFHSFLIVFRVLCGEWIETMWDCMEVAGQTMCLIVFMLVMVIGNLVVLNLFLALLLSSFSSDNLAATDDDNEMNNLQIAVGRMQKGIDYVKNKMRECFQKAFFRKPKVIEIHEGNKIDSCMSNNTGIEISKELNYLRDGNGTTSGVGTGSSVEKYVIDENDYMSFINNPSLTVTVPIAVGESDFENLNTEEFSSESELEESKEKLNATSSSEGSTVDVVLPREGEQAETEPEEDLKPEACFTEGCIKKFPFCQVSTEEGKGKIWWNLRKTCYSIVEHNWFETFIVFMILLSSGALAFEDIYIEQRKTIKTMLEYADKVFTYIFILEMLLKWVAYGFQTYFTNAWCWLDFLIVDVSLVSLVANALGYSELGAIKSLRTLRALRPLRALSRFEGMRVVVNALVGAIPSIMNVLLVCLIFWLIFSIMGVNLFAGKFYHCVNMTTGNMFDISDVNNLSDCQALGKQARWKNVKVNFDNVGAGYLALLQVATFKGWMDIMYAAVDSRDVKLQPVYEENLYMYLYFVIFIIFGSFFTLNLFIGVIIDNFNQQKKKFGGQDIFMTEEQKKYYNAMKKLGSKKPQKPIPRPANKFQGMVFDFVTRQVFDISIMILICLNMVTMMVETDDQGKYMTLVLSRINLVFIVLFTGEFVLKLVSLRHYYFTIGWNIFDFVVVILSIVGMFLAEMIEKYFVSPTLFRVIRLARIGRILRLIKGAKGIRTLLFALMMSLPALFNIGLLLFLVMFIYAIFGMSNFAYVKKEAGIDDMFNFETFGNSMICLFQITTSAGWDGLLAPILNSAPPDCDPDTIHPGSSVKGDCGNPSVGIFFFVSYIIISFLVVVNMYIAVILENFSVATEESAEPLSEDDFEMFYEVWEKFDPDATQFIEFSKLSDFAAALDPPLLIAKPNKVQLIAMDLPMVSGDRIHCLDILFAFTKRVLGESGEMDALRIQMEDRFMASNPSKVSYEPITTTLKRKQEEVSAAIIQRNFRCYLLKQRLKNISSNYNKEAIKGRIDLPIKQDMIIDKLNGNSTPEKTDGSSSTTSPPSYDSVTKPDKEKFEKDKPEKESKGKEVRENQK
T2 sequence (Q07699 19-218, further chain): as the sequence (Q07699 19-218, further chain) above
Description: as §1, §2, §3

hNaV1.2 = target: T3, hNaV1.2 (Homo sapiens, UniProt Q99250); assay: Automated whole-cell patch-clamp (QPatch 16X), hNaV1.2; settings: for IC50: HEK293 cells expressing hNaV1.2 + β1 subunit, QPatch 16X, holding −80 mV, step to 0 mV, peptide incubated 2 min, 0.1% BSA, mean, SEM and n (2-7)
T3 construct: host or cells: HEK293
Description: as §1, §2, §3

SMILES	IC50 (hNaV1.7)	IC50 (hNaV1.3)	IC50 (hNaV1.2)	Loss (reduction) in potency vs rSsp1a at hNaV1.7 (hNaV1.7; relative to wild type rSsp1a)	Loss (reduction) in potency vs rSsp1a at hNaV1.2 (hNaV1.2; relative to wild type rSsp1a)
CC(C)C[C@H](NC(=O)[C@H](CC(=O)O)NC(=O)[C@H](Cc1ccc(O)cc1)NC(=O)[C@H](CCCNC(=N)N)NC(=O)[C@@H]1CSSC[C@@H]2NC(=O)[C@H](CCCCN)NC(=O)[C@H](CC(N)=O)NC(=O)[C@H](CC(N)=O)NC(=O)[C@H](CC(N)=O)NC(=O)[C@@H]3CCCN3C(=O)[C@H](CC(=O)O)NC(=O)[C@@H]3CSSC[C@H](NC(=O)[C@H](C(C)C)NC(=O)[C@H](Cc4ccc(O)cc4)NC(=O)CNC(=O)[C@H](CCCCN)NC(=O)[C@H](CSSC[C@H](NC(=O)[C@H](CC(=O)O)NC(=O)CN)C(=O)N[C@@H](CC(C)C)C(=O)NCC(=O)N[C@@H](Cc4c[nH]c5ccccc45)C(=O)N[C@@H](Cc4ccccc4)C(=O)N[C@@H](CCCNC(=N)N)C(=O)NCC(=O)N3)NC2=O)C(=O)N[C@@H](Cc2c[nH]cn2)C(=O)N[C@@H](Cc2c[nH]c3ccccc23)C(=O)N[C@@H](CCCCN)C(=O)N[C@@H](Cc2ccc(O)cc2)C(=O)N2CCC[C@H]2C(=O)N[C@@H](Cc2c[nH]c3ccccc23)C(=O)N1)C(=O)O [E18K/S7R] (H-GDCLGWFRGCDPNNNKCCKGYVCHWKYPWCRYDL-OH; disulfide 3-18, 10-23, 17-30)	0.04 µM	0.059 µM	0.04 µM		
CC(C)C[C@H](NC(=O)[C@H](CC(=O)O)NC(=O)[C@H](Cc1ccc(O)cc1)NC(=O)[C@H](CCCNC(=N)N)NC(=O)[C@@H]1CSSC[C@@H]2NC(=O)[C@H](CCCCN)NC(=O)[C@H](CC(N)=O)NC(=O)[C@H](CC(N)=O)NC(=O)[C@H](CC(N)=O)NC(=O)[C@@H]3CCCN3C(=O)[C@H](CC(=O)O)NC(=O)[C@@H]3CSSC[C@H](NC(=O)[C@H](C(C)C)NC(=O)[C@H](Cc4ccc(O)cc4)NC(=O)CNC(=O)[C@H](CCC(=O)O)NC(=O)[C@H](CSSC[C@H](NC(=O)[C@H](CC(=O)O)NC(=O)CN)C(=O)N[C@@H](CC(C)C)C(=O)NCC(=O)N[C@@H](Cc4c[nH]c5ccccc45)C(=O)N[C@@H](Cc4ccccc4)C(=O)N[C@@H](CO)C(=O)NCC(=O)N3)NC2=O)C(=O)N[C@@H](Cc2c[nH]cn2)C(=O)N[C@@H](C)C(=O)N[C@@H](CCCCN)C(=O)N[C@@H](Cc2ccc(O)cc2)C(=O)N2CCC[C@H]2C(=O)N[C@@H](Cc2c[nH]c3ccccc23)C(=O)N1)C(=O)O [W24A] (H-GDCLGWFSGCDPNNNKCCEGYVCHAKYPWCRYDL-OH; disulfide 3-18, 10-23, 17-30 (inferred); N-terminus and C-terminus assumed)	> 1 µM	> 1 µM	> 1 µM	≥ 10 fold	≥ 10 fold
CC(C)C[C@H](NC(=O)[C@H](CC(=O)O)NC(=O)[C@H](Cc1ccc(O)cc1)NC(=O)[C@H](CCCNC(=N)N)NC(=O)[C@@H]1CSSC[C@@H]2NC(=O)[C@H](CCCCN)NC(=O)[C@H](CC(N)=O)NC(=O)CNC(=O)[C@H](CC(N)=O)NC(=O)[C@@H]3CCCN3C(=O)[C@H](CC(=O)O)NC(=O)[C@@H]3CSSC[C@H](NC(=O)[C@H](C(C)C)NC(=O)[C@H](Cc4ccc(O)cc4)NC(=O)CNC(=O)[C@H](CCC(=O)O)NC(=O)[C@H](CSSC[C@H](NC(=O)[C@H](CC(=O)O)NC(=O)CN)C(=O)N[C@@H](CC(C)C)C(=O)NCC(=O)N[C@@H](Cc4c[nH]c5ccccc45)C(=O)N[C@@H](Cc4ccccc4)C(=O)N[C@@H](CO)C(=O)NCC(=O)N3)NC2=O)C(=O)N[C@@H](Cc2c[nH]cn2)C(=O)N[C@@H](Cc2c[nH]c3ccccc23)C(=O)N[C@@H](CCCCN)C(=O)N[C@@H](Cc2ccc(O)cc2)C(=O)N2CCC[C@H]2C(=O)N[C@@H](Cc2c[nH]c3ccccc23)C(=O)N1)C(=O)O [N13G]	0.287 µM	0.287 µM	0.28 µM		
